Assay results from ChEMBL document CHEMBL3259580, “New compounds from acid hydrolyzed products of the fruits of Momordica charantia L. and their inhibitory activity against protein tyrosine phosphatas 1B” (Eur J Med Chem, 2014).

Tests used:
[1] = biological target: T1, Tyrosine-protein phosphatase non-receptor type 1 (Homo sapiens) (UniProt P18031); experiment: Inhibition of PTP1B (unknown origin) using para-nitro phenyl phosphate as substrate at 30 uM after 30 mins
T1 sequence (whole entry): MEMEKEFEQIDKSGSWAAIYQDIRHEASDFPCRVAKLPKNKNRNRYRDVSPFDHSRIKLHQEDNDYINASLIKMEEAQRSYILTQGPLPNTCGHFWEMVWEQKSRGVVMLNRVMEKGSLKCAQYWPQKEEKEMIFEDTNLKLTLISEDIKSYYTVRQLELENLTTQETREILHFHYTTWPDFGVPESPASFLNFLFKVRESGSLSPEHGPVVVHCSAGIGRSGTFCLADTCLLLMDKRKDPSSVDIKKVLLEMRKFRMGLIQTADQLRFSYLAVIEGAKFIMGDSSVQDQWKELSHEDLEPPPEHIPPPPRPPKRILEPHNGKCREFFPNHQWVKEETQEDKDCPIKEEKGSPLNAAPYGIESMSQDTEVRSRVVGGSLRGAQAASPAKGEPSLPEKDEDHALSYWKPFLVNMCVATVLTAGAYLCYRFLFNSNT

[2] = biological target: T1, Tyrosine-protein phosphatase non-receptor type 1 (Homo sapiens); experiment: Inhibition of PTP1B (unknown origin) using para-nitro phenyl phosphate as substrate at 10 uM after 30 mins
[3] = biological target: Tyrosine-protein phosphatase non-receptor type 1 (Homo sapiens) (UniProt P18031); experiment: Inhibition of PTP1B (unknown origin) using para-nitro phenyl phosphate as substrate at 20 uM after 30 mins

Compound | inhibition [1] | inhibition [2] | inhibition [3]
CO[C@@H]1O[C@]23C=C[C@@H]4[C@@]1(CC[C@]1(C)[C@@H]([C@H](C)C[C@H](C=C(C)C)OC)CC[C@@]41C)[C@@H]2CC[C@H](O)C3(C)C | 40% | 32% | 
SODIUM ORTHOVANAD |  |  | 44%
CO[C@@H]1O[C@]23C=C[C@@H]4[C@@]1(CC[C@]1(C)[C@@H]([C@H](C)C/C=C/C(C)(C)O)CC[C@@]41C)[C@@H]2CC[C@H](O)C3(C)C |  | -7% | 
C=C(C)/C=C/C[C@@H](C)[C@H]1CC[C@@]2(C)[C@@H]3C=C[C@@]45O[C@@H](OC)[C@]3(CC[C@]12C)[C@@H]4CC[C@H](O)C5(C)C | 60% | 41% | 
CO[C@@H]1O[C@@]23C=C[C@@H]4[C@]1(CC[C@@]1(C)[C@@H]([C@@H](C)C[C@H](C=C(C)C)OC)CC[C@]41C)[C@@H]2CC[C@H](O)C3(C)C | 62% | 44% | 
CO[C@@H]1O[C@]23C=C[C@@H]4[C@@]1(CC[C@]1(C)[C@@H]([C@H](C)C/C=C/C(C)(C)OC)CC[C@@]41C)[C@@H]2CC[C@H](O)C3(C)C | 37% | 22% | 
C[C@H](C/C=C/C(C)(C)O)[C@H]1CC[C@@]2(C)[C@@H]3[C@@H](O)C=C4[C@@H](CC[C@H](O)C4(C)C)[C@]3(C=O)CC[C@]12C |  | -5% | 
C[C@H](C/C=C/C(C)(C)O)[C@H]1CC[C@@]2(C)[C@@H]3C=C[C@@]45OC[C@]3(CC[C@]12C)[C@@H]4CC[C@H](O)C5(C)C | 52% | 30% | 
C=C(C)/C=C/C[C@@H](C)[C@H]1CC[C@@]2(C)[C@@H]3C=C[C@@]45O[C@@H](O)[C@]3(CC[C@]12C)[C@@H]4CC[C@H](O)C5(C)C | 68% | 44% | 
CO[C@H]1O[C@@]23C=C[C@@H]4[C@]1(CC[C@@]1(C)[C@@H]([C@@H](C)C[C@H](C=C(C)C)OC)CC[C@]41C)[C@@H]2CC[C@H](O)C3(C)C | 77% | 57% | 
CO[C@H]1O[C@]23C=C[C@@H]4[C@@]1(CC[C@]1(C)[C@@H]([C@H](C)C[C@H](C=C(C)C)OC)CC[C@@]41C)[C@@H]2CC[C@H](O)C3(C)C | 62% | 32% | 
